According to ChEMBL document CHEMBL1201862, “PubChem BioAssay data set” (2004):
Active and inactive are the calls of the source.

Tests used:
Protein skinhead-1 = target: T1, Protein skinhead-1 (Caenorhabditis elegans, UniProt P34707); type: functional
T1 sequence (P34707 whole entry): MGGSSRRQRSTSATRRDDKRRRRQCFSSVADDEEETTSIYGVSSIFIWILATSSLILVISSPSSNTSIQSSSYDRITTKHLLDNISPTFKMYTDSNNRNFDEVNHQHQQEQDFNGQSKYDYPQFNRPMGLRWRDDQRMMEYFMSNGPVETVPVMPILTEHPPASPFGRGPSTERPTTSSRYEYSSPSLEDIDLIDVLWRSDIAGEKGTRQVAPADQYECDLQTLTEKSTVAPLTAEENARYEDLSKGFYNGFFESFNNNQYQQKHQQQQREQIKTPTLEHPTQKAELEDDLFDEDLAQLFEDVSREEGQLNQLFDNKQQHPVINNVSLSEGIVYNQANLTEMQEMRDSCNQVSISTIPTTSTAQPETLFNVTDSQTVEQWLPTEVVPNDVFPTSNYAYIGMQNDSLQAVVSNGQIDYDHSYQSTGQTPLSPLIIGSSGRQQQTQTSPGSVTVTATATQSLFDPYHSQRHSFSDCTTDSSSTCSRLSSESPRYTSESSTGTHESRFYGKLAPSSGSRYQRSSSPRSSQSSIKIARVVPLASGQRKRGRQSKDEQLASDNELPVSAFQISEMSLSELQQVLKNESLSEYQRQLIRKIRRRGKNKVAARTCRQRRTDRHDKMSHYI

cells [1] = type: functional, cell-based
[2] = target: Luciferin 4-monooxygenase (Photinus pyralis, UniProt P08659); assay: inhibition of purified Photinus pyralis luciferase – biochemical, luminescence, dose response (AID 1891)
[3] = target: T2, Nuclear receptor subfamily 0 group B member 1 (Homo sapiens, UniProt P51843); type: functional, cell-based;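 further: HEK293T cells transfected with SF-1 and DAX-1 plus StAR promoter luciferase reporter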
T2 sequence (P51843 whole entry): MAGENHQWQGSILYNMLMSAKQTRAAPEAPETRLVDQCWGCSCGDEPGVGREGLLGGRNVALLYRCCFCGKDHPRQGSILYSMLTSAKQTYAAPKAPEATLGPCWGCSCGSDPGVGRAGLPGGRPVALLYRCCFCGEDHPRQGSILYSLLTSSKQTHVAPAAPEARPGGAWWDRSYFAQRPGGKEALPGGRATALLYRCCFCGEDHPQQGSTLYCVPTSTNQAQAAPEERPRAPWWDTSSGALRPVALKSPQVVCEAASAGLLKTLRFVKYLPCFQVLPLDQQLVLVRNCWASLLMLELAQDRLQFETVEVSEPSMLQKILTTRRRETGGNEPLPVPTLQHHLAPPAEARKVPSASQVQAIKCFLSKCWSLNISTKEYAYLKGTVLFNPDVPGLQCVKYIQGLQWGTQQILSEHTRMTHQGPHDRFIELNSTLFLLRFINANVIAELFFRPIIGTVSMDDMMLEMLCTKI

[4] = Luminescence Cell-Based Dose Confirmation HTS to Identify Inhibitors of Platelet Dense Granule Release. [Related pubchem assays: 1663 (Primary HTS), 1678 (Summary of Project)]; type: functional
Albumin = Albumin (Bos taurus, UniProt P02769); assay: Counterscreen for inhibitors of T-cell receptor (TCR)-CD3 interaction: Fluorescence-based biochemical high throughput dose response assay to identify inhibitors of T-cell receptor (TCR)-CD3 interaction using a TAMRA-labeled BSA probe.; type: functional
[5] = target: Peroxisome proliferator-activated receptor gamma/Nuclear receptor coactivator 2 (Homo sapiens, UniProt P37231); type: functional;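 further: agonist potency for raising coactivator recruitment to the receptor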
[6] = target: Peroxisome proliferator-activated receptor gamma/Nuclear receptor coactivator 3 (Homo sapiens, UniProt P37231); type: functional;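 further: agonist potency for raising coactivator recruitment to the receptor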
[7] = target: Peroxisome proliferator-activated receptor gamma/Nuclear receptor coactivator 1 (Homo sapiens, UniProt P37231); type: functional;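 further: agonist potency as compounds enhance coactivator SRC-1 recruitment to PPARgamma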
[8] = target: DNA dC->dU-editing enzyme APOBEC-3G (Homo sapiens, UniProt Q9HC16); assay: Dose Response confirmation of small molecule APOBEC3G DNA Deaminase Inhibitors via a fluorescence-based single-stranded DNA deaminase assay. [Related pubchem assays (depositor defined):AID493012, AID493028]; type: functional
Cytochrome P450 3A4 = Cytochrome P450 3A4 (Homo sapiens, UniProt P08684); settings: Potency;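 further: confirmatory qHTS run detecting inhibitors and substrates of CYP3A4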
[9] = target: T3, RNA-binding protein pos-1 (Caenorhabditis elegans, UniProt G5EF15); assay: disruptors of C. elegans POS-1 RNA interaction – biochemical, fluorescence polarization, dose response (AID 1964);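 further: purified POS-1 fused to maltose binding protein made in E. coli; potency of compounds blocking POS-1 binding to fluorescent RNA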
T3 sequence (G5EF15 whole entry): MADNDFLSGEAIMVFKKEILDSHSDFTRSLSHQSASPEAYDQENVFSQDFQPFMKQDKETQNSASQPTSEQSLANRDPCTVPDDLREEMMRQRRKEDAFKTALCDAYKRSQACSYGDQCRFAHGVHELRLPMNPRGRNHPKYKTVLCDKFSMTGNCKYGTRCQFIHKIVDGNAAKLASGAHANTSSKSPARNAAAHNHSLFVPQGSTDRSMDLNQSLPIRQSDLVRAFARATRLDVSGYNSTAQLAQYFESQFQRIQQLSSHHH

cells [10] = assay: cells
[11] = target: T4, Oxysterols receptor LXR-beta (Homo sapiens, UniProt P55055); type: functional, cell-based;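 further: Cell-based luminescence dose-response assay of agonist activity at LXR, run as a confirmatory counterscreen to a daf-12 agonist screen; HEK293 cells with Gal4-LXR fusion and GAL4-driven luciferase reporter; agonist potency from rising luciferase signal of a Gal4-LXR reporter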
T4 sequence (P55055 whole entry): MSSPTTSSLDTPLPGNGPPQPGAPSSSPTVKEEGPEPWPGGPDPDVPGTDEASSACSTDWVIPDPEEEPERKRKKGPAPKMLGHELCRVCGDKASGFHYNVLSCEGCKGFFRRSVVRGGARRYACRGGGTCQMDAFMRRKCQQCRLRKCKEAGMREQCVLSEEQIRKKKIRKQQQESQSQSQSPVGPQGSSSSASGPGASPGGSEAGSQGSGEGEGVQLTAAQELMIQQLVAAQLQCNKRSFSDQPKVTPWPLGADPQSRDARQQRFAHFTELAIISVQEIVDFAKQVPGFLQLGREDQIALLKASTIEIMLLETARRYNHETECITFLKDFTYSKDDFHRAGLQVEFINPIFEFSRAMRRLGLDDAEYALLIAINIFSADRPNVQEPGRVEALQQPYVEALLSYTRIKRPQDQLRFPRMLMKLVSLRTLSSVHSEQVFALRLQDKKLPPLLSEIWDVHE

[12] = target: T5, Zinc finger protein mex-5 (Caenorhabditis elegans, UniProt Q9XUB2); assay: potency of MEX-5 RNA-binding blockers – biochemical, C. elegans, fluorescence polarization, dose response (AID 1960)
T5 sequence (Q9XUB2 whole entry): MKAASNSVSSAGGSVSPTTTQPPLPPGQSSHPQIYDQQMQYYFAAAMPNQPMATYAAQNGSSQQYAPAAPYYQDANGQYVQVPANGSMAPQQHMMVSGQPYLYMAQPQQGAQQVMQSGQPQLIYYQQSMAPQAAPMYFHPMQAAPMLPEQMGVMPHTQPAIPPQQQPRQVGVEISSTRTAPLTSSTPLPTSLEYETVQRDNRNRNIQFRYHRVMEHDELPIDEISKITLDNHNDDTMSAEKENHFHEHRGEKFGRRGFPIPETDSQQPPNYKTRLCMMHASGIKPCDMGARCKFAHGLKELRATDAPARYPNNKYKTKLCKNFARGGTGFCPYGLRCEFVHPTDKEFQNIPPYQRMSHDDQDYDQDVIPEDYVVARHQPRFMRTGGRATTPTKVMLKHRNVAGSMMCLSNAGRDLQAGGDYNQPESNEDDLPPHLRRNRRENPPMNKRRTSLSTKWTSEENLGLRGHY

[13] = A549 cell cytotoxicity, dose response, cytotoxicity control, plate reader, cherry-pick, antagonist series (AID 743412); type: functional, cell-based
[14] = blockers of bursicon-stimulated LGR2 cAMP reporter – cell-based, HEK293, CRE-luciferase reporter, cherry pick, set 2, dose response (AID 743343); type: functional;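 further: transfected cells were stimulated with diluted bursicon conditioned medium after compound addition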
[15] = blockade of melanocortin 4 receptor signaling – cell-based, plate reader, cherry pick, counter-screen for LGR2 antagonist project, dose response (AID 743444); type: functional;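 further: transfected HEK 293 cells stimulated with alpha-MSH peptide; potency of inhibitors of the alpha-MSH evoked signal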
[16] = toxicity toward HepG2 liver cells – cell-based, plate reader, cherry-pick, antagonist series, cytotoxicity control, dose response (AID 743416); type: functional
Fatty acid synthase [17] = target: T6, Fatty acid synthase (Homo sapiens, UniProt P49327); assay: inhibition of human FAS-TE enzyme activity – biochemical, kinetic fluorescence intensity, dose response (AID 624326); type: functional;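 further: rate of fluorescence rise from hydrolysis of a fluorogenic O-methyl fluorescein ester substrate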
Fatty acid synthase [18] = target: T6, Fatty acid synthase; assay: inhibition of human FAS-TE enzyme activity – biochemical, endpoint fluorescence intensity, uHTS hits, dose response (AID 624327); type: functional;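 further: fluorescence from hydrolysis of an O-methyl fluorescein acyl ester substrate by the enzyme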
[19] = target: T7, Long-chain-fatty-acid--AMP ligase FadD28 (Mycobacterium tuberculosis, UniProt P9WQ59); assay: Fluorescence polarization aasay to screen for inhibitors that compete for the binding of FadD28 to a bisubstrate Measured in Biochemical System Using Plate Reader - 2147-01_Inhibitor_Dose_CherryPick_Activity.; type: functional, Mycobacterium tuberculosis H37Rv
T7 sequence (P9WQ59 whole entry): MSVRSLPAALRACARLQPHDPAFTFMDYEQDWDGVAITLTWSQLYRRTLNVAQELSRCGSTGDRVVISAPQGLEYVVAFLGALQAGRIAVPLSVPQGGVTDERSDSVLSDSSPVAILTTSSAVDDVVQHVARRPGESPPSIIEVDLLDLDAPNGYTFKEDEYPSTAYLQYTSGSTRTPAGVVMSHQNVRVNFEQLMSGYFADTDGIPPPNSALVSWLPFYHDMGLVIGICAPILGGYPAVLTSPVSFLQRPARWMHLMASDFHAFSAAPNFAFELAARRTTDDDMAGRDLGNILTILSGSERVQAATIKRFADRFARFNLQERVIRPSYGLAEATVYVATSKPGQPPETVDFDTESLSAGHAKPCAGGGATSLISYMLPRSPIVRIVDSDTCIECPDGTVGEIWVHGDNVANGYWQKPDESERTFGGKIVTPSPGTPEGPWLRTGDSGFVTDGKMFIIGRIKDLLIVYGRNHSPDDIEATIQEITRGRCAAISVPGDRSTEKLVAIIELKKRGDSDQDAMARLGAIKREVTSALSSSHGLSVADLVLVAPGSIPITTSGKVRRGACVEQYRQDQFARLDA

Caspase-6 = target: T8, Caspase-6 (Homo sapiens, UniProt P55212); assay: inhibition of CASP6 peptide cleavage – biochemical, VEID-R110 fluorescence, cherry-pick, dose response (AID 720632)
T8 sequence (P55212 whole entry): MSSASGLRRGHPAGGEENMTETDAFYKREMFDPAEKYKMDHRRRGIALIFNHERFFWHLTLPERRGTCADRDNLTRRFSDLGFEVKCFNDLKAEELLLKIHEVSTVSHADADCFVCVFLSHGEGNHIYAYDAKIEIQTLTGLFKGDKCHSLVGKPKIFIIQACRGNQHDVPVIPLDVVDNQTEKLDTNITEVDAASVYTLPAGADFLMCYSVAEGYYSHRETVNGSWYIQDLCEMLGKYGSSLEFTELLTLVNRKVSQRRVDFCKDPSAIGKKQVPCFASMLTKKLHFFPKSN

[20] = target: Induced myeloid leukemia cell differentiation protein Mcl-1 (Homo sapiens, UniProt Q07820); type: functional
Large T antigen = Large T antigen (Simian virus 40, UniProt P03070); type: functional, Betapolyomavirus macacae;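 further: Confirmatory-stage PubChem screen for compounds that inhibit SV40 T antigen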

Chain of Peroxisome proliferator-activated receptor gamma/Nuclear receptor coactivator 1 (P37231 whole entry): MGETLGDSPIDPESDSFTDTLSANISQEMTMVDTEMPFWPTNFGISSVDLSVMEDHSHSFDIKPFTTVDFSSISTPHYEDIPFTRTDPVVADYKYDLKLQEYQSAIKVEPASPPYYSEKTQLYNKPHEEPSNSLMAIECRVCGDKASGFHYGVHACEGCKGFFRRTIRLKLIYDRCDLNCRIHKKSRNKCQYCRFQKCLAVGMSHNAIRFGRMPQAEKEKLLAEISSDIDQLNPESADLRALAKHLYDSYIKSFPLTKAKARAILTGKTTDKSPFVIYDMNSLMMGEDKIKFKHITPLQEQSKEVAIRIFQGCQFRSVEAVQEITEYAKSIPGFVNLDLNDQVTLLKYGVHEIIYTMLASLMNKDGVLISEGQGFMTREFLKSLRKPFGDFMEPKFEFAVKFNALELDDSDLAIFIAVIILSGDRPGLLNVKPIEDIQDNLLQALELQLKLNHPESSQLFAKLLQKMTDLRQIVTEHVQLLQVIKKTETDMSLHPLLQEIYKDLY
Chain of Peroxisome proliferator-activated receptor gamma/Nuclear receptor coactivator 1 (Q15788 whole entry, further chain): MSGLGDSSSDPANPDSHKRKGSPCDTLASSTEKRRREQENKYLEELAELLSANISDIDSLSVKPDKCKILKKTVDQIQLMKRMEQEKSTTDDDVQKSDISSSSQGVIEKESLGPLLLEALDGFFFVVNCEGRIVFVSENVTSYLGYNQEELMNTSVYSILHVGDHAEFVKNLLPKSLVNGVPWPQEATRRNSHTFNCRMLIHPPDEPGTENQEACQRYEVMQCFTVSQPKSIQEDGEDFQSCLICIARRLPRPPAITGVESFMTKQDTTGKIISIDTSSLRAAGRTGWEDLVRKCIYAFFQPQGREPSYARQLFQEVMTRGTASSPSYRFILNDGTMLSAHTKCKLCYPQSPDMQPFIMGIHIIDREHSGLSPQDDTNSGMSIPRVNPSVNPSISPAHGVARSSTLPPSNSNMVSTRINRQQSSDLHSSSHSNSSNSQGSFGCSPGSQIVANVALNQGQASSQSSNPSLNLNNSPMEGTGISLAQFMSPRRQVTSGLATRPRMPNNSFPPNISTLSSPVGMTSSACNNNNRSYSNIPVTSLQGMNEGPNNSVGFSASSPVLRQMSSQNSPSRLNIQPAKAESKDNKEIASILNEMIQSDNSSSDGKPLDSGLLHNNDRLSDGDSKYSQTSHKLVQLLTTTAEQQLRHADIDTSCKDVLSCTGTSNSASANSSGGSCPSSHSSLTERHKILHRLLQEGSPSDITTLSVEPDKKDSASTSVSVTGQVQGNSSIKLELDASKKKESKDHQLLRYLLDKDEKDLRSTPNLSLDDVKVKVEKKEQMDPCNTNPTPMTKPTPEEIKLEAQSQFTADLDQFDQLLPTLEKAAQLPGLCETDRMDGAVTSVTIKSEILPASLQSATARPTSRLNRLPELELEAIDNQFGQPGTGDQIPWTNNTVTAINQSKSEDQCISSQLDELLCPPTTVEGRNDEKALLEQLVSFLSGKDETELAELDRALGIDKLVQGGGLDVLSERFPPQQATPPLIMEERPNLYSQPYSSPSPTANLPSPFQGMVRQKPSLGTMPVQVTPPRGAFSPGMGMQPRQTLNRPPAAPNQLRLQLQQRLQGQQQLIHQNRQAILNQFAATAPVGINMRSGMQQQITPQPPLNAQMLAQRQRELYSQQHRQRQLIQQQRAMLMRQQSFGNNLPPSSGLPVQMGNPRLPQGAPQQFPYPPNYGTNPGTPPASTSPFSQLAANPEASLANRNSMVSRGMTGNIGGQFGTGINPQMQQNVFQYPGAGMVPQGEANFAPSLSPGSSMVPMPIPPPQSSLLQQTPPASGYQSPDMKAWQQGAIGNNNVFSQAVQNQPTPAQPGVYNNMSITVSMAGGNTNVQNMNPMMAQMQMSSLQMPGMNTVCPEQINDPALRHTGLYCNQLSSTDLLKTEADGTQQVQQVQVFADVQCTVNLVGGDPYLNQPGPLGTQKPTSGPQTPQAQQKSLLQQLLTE
Chain of Peroxisome proliferator-activated receptor gamma/Nuclear receptor coactivator 3 (P37231 whole entry): as the sequence (P37231 whole entry) above
Chain of Peroxisome proliferator-activated receptor gamma/Nuclear receptor coactivator 3 (Q9Y6Q9 whole entry, further chain): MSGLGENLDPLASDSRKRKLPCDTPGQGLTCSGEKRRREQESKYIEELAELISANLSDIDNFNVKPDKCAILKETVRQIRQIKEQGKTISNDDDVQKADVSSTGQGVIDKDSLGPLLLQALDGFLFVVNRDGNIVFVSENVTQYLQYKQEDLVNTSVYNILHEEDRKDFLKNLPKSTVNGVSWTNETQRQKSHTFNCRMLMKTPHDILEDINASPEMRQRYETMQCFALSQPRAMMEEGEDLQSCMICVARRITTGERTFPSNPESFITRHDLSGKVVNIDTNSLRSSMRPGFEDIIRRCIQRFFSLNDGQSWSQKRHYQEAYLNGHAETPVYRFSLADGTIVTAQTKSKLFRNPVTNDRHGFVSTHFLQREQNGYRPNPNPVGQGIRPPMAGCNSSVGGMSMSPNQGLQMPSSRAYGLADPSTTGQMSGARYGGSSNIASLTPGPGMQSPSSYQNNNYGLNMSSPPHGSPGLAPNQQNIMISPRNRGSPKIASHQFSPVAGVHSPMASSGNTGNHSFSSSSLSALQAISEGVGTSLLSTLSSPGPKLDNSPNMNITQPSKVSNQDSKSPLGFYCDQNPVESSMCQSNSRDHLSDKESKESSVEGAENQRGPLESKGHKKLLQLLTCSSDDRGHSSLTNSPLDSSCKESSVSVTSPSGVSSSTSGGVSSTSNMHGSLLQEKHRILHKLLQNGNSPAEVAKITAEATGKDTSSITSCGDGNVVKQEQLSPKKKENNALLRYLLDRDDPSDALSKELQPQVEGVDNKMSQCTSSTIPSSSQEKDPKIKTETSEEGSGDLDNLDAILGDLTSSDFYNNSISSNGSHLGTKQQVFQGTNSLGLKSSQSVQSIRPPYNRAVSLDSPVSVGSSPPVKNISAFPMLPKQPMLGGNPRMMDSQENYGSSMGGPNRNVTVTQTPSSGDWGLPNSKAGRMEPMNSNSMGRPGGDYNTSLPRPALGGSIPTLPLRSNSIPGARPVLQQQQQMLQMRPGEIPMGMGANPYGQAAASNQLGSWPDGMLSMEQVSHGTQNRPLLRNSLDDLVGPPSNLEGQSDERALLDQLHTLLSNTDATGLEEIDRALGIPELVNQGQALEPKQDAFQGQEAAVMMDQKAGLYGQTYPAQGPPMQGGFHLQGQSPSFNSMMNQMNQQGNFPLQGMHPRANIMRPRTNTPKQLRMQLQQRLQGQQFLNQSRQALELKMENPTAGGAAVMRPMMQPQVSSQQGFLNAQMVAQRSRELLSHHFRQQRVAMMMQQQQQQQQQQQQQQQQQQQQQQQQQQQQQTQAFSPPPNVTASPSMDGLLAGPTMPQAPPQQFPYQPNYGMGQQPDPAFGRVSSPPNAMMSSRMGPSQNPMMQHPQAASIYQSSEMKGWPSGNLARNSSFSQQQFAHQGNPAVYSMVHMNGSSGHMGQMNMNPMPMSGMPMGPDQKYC
Chain of Albumin (P02769 whole entry): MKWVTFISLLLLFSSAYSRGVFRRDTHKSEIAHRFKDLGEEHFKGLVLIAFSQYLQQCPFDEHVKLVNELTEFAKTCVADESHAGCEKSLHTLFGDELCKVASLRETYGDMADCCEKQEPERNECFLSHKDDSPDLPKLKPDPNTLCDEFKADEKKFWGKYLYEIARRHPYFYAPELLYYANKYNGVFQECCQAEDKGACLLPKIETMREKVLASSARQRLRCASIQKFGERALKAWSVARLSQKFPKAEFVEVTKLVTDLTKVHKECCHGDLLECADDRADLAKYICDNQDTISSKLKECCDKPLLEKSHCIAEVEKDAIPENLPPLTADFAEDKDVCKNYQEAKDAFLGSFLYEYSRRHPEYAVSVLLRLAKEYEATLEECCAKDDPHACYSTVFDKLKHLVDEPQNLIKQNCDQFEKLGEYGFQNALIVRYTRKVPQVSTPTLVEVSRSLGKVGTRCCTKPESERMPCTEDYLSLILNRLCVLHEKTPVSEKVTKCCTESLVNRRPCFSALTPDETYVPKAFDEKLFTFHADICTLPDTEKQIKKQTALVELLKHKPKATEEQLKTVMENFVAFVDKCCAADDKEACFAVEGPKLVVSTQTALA
Chain of Luciferin 4-monooxygenase (P08659 whole entry): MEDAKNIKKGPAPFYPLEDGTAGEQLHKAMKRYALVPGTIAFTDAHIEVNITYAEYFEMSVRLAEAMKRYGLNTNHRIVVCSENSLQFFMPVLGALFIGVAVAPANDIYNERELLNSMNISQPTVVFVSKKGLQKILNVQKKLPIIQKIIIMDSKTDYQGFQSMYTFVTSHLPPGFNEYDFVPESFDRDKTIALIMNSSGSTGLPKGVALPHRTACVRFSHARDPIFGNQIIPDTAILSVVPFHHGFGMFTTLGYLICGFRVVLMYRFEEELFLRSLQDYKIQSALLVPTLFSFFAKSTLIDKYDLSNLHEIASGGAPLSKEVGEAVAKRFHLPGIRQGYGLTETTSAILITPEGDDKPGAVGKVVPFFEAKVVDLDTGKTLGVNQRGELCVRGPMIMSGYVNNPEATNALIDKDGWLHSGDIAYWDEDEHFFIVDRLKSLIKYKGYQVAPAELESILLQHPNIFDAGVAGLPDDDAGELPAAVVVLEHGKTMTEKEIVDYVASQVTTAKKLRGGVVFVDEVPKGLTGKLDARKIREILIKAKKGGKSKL

SMILES: O=C(/C=C/Nc1ccc(F)cc1F)c1ccco1
- IC50 (Protein skinhead-1): 17 µM (active)
- IC50 (cells [1]): > 67.5 µM (inactive)
- EC50 [2]: 0.812 µM (active)
- IC50 [3]: > 67.5 µM (inactive)
- EC50 [4]: 4.36 µM (active)

SMILES: CC(=O)NNC(=S)NC(=O)c1ccc(C)cc1
- IC50 (Albumin): > 94 µM (inactive)

SMILES: Cc1ccc(OCC(=O)NNC(=O)C(=O)NC(C)(C)C)cc1
- EC50 [5]: > 79.4 µM (not active)
- EC50 [6]: > 79.4 µM (not active)
- EC50 [7]: > 79.4 µM (not active)

SMILES: COCCn1c(C)cc(C(=O)CN2C(=O)NC3(CCCCCC3)C2=O)c1C
- IC50 (cells [1]): > 67.5 µM (inactive)
- IC50 [3]: > 67.5 µM (inactive)

SMILES: CCN(CC)c1ccc(NC(=O)c2ccccn2)cc1S(=O)(=O)Nc1ccccc1OC
- IC50 [8]: 69.2 µM (active)

SMILES: COc1ccc(Cn2c(-c3ccc(C)cc3)nc3c(c(=O)c4ccccc4n3C)c2=O)cc1
- EC50 [5]: > 79.4 µM (not active)
- EC50 [6]: > 79.4 µM (not active)
- EC50 [7]: > 79.4 µM (not active)

SMILES: COc1ccc(-c2cc(=O)c3cc(OC)ccc3o2)cc1 [6,4'-DIMETHOXYFLAVONE]
- IC50 (cells [1]): > 67.5 µM (inactive)
- AC50 (Cytochrome P450 3A4): 3.16 µM (inconclusive)
- IC50 [3]: > 67.5 µM (inactive)

SMILES: O=C(c1cccs1)c1ccc(-c2cccs2)s1
- EC50 [9]: 215 µM (active)
- IC50 (Protein skinhead-1): 26.5 µM (active)
- EC50 (cells [10]): > 67.5 µM (inactive)
- EC50 [11]: > 67.5 µM (inactive)
- EC50 [12]: > 300 µM (not active)

SMILES: CC(C)c1nnc(NC(=O)c2ccc3c(c2)OCO3)s1
- AC50 [13]: > 52 µM (inactive)
- AC50 [14]: 4.95 µM (active)
- IC50 (cells [1]): > 67.6 µM (inactive)
- AC50 [15]: 5.43 µM (active)
- IC50 [3]: > 0.278 µM (active)
- AC50 [16]: > 52 µM (inactive)

SMILES: Cc1ccc2[nH]c(CSc3nc(C)cc(C)c3C#N)nc2c1
- EC50 (cells [10]): > 67.5 µM (inactive)
- EC50 [11]: > 67.5 µM (inactive)

SMILES: C=CCOc1c(Br)cc(/C=N/Nc2ccc(C(=O)O)cc2)cc1OCC
- IC50 (Fatty acid synthase [17]): 10.5 µM (active)
- IC50 (Fatty acid synthase [18]): 12.6 µM (active)
- AC50 [19]: 62.7 µM (active)

SMILES: CCOc1ccc(NC2=NN=C(c3cc(C)n(CC4CCCO4)c3C)CS2)cc1 (configuration not stated)
- EC50 [5]: > 79.4 µM (not active)
- EC50 [6]: > 79.4 µM (not active)
- EC50 [7]: > 79.4 µM (not active)

SMILES: O=C(NNC(=O)c1ccccc1F)c1cccc(-n2cccc2)c1
- AC50 (Caspase-6): 1.2 µM (active)
- IC50 (Albumin): > 94 µM (inactive)

SMILES: O=C1NN(c2ccccc2)C(=O)/C1=C\c1ccc(-c2cc([N+](=O)[O-])ccc2O)o1
- IC50 [20]: 10.7 µM (active)
- AC50 [19]: 8.08 µM (active)
- IC50 (Large T antigen): 20.7 µM (active)
